The NIST ThermoML archive (doi:10.1016/j.jct.2011.06.020)
± gives the expanded uncertainty stated by the source.

Test: refractive index (Na D-line) (dimensionless); xn = mol fraction of the nth substance listed
Settings: 101 kPa, Liquid, Standard Abbe refractometry

CN1CCNCC1 [N-methylpiperazine] + O
refractive index
Settings	293.15 K	298.15 K	303.15 K	308.15 K	313.15 K	323.15 K	328.15 K	333.15 K
x1 = 0.0521	1.374 ± 0.001	1.373 ± 0.001	1.373 ± 0.001	1.372 ± 0.001	1.371 ± 0.001	1.369 ± 0.001	1.368 ± 0.001	1.366 ± 0.001
x1 = 0.0725	1.389 ± 0.001	1.388 ± 0.001	1.387 ± 0.001	1.386 ± 0.001	1.384 ± 0.001	1.382 ± 0.001	1.381 ± 0.001	1.379 ± 0.001
x1 = 0.1039	1.406 ± 0.001	1.405 ± 0.001	1.403 ± 0.001	1.402 ± 0.001	1.401 ± 0.001	1.397 ± 0.001	1.396 ± 0.001	1.396 ± 0.001
x1 = 0.2091	1.44 ± 0.001	1.438 ± 0.001	1.436 ± 0.001	1.434 ± 0.001	1.432 ± 0.001	1.428 ± 0.001	1.427 ± 0.001	1.425 ± 0.001
x1 = 0.3101	1.453 ± 0.001	1.451 ± 0.001	1.449 ± 0.001	1.447 ± 0.001	1.445 ± 0.001	1.441 ± 0.001	1.439 ± 0.001	1.437 ± 0.001
x1 = 0.4096	1.459 ± 0.001	1.457 ± 0.001	1.455 ± 0.001	1.453 ± 0.001	1.451 ± 0.001	1.446 ± 0.001	1.444 ± 0.001	1.442 ± 0.001
x1 = 0.5109	1.462 ± 0.001	1.46 ± 0.001	1.458 ± 0.001	1.456 ± 0.001	1.454 ± 0.001	1.449 ± 0.001	1.447 ± 0.001	1.445 ± 0.001
x1 = 0.608	1.464 ± 0.001	1.462 ± 0.001	1.46 ± 0.001	1.457 ± 0.001	1.455 ± 0.001	1.451 ± 0.001	1.448 ± 0.001	1.446 ± 0.001
x1 = 0.7065	1.465 ± 0.001	1.463 ± 0.001	1.461 ± 0.001	1.458 ± 0.001	1.456 ± 0.001	1.451 ± 0.001	1.449 ± 0.001	1.447 ± 0.001
x1 = 0.8069	1.466 ± 0.001	1.463 ± 0.001	1.461 ± 0.001	1.459 ± 0.001	1.456 ± 0.001	1.452 ± 0.001	1.449 ± 0.001	1.447 ± 0.001
x1 = 0.8819	1.466 ± 0.001	1.464 ± 0.001	1.461 ± 0.001	1.459 ± 0.001	1.457 ± 0.001	1.452 ± 0.001	1.449 ± 0.001	1.447 ± 0.001
x1 = 1	1.466 ± 0.001	1.464 ± 0.001	1.461 ± 0.001	1.459 ± 0.001	1.457 ± 0.001	1.452 ± 0.001	1.449 ± 0.001	1.447 ± 0.001
